The test system of experiment [1] is live NiV. The settings on record: 56 μM.
For experiment [2], the system named is HeV-mediated fusion (HeLa cells expressing HeV F and G, U373 target cells).
The subject of experiment [3] is NiV-mediated fusion (HeLa cells expressing NiV F and G, U373 target cells).

Broadly, the IC50 is the concentration that gives 50% inhibition. Low readings indicate inhibition by little substance, high ones a need for much substance.

On to `CC[C@H](C)[C@H](NC(=O)[C@H](CCCCN)NC(=O)[C@H](CCC(N)=O)NC(=O)[C@H](C)NC(=O)[C@H](CCC(=O)O)NC(=O)[C@H](CCCCN)NC(=O)[C@@H](NC(=O)[C@H](Cc1ccc(O)cc1)NC(=O)[C@H](CC(=O)O)NC(=O)[C@H](CCCCN)NC(=O)[C@H](CO)NC(=O)[C@H](CCC(N)=O)NC(=O)[C@H](CCC(N)=O)NC(=O)[C@H](CC(C)C)NC(=O)[C@H](CO)NC(=O)[C@H](CCC(N)=O)NC(=O)[C@H](CC(N)=O)NC(=O)[C@H](CCSC)NC(=O)[C@H](CO)NC(=O)[C@H](CO)NC(=O)[C@@H](NC(=O)[C@H](CCC(N)=O)NC(=O)[C@H](CO)NC(=O)[C@H](CO)NC(=O)[C@@H](NC(=O)[C@H](CC(=O)O)NC(=O)[C@@H](NC(=O)[C@H](CCCCN)NC(=O)[C@H](CC(=O)O)NC(=O)[C@@H](NC(=O)[C@H](Cc1ccc(O)cc1)NC(=O)[C@@H](NC(=O)[C@@H]1CCCN1C(=O)[C@@H]1CCCN1)C(C)C)[C@@H](C)O)C(C)C)[C@@H](C)CC)[C@@H](C)CC)[C@@H](C)CC)C(=O)N[C@@H](CC(C)C)C(=O)N[C@@H](CC(=O)O)C(=O)N[C@H](C(=O)N[C@H](C(=O)N[C@@H](CC(N)=O)C(=O)N1CCC[C@H]1C(=O)N[C@@H](CO)C(=O)N[C@@H](CC(C)C)C(=O)O)C(C)C)[C@@H](C)O` [FC1], for which the “% Inhibition of focus formation” value in experiment [1] is 91.8%. Also, the “Inhibition of HeV-mediated fusion (in words)” value in experiment [2] is listed as “completely inhibit HeV-mediated fusion in the nM range”. For the same molecule, in experiment [3], the “Inhibition of NiV-mediated fusion (in words)” value was “capable of inhibiting recombinant NiV-mediated fusion at slightly lower efficiencies”.

For the molecule `CC[C@H](C)[C@H](NC(=O)[C@H](CCCCN)NC(=O)[C@H](CCC(N)=O)NC(=O)[C@H](C)NC(=O)[C@H](CCC(=O)O)NC(=O)[C@H](CCCCN)NC(=O)[C@@H](NC(=O)[C@H](Cc1ccc(O)cc1)NC(=O)[C@H](CC(=O)O)NC(=O)[C@H](CCCCN)NC(=O)[C@H](CO)NC(=O)[C@H](CCC(N)=O)NC(=O)[C@H](CCC(N)=O)NC(=O)[C@H](CC(C)C)NC(=O)[C@H](CO)NC(=O)[C@H](CCC(N)=O)NC(=O)[C@H](CC(N)=O)NC(=O)[C@H](CCSC)NC(=O)[C@H](CO)NC(=O)[C@H](CO)NC(=O)[C@@H](NC(=O)[C@H](CCC(N)=O)NC(=O)[C@H](CO)NC(=O)[C@H](CO)NC(=O)[C@@H](NC(=O)[C@H](CC(=O)O)NC(=O)[C@@H](NC(=O)[C@H](CCCCN)NC(=O)[C@H](CC(=O)O)NC(=O)[C@@H](NC(=O)[C@H](Cc1ccc(O)cc1)NC(=O)[C@@H](NC(=O)[C@@H]1CCCN1C(=O)[C@@H]1CCCN1)C(C)C)[C@@H](C)O)C(C)C)[C@@H](C)CC)[C@@H](C)CC)[C@@H](C)CC)C(=O)N[C@@H](CC(C)C)C(=O)N[C@@H](CC(=O)O)C(=O)N[C@H](C(=O)N[C@H](C(=O)N[C@@H](CC(N)=O)C(=O)N1CCC[C@H]1C(=O)N[C@@H](CO)C(=O)N[C@@H](CC(C)C)C(=O)O)C(C)C)[C@@H](C)O` [HeV FC2], in experiment [2], the IC50 was 5.2 to 5.8 nM and the “Inhibition of HeV-mediated fusion (in words)” value was “completely inhibitory in the nM range”. In addition, in experiment [3], the IC50 was 5.2 to 5.8 nM and the “Inhibition of NiV-mediated fusion (in words)” value was “completely inhibitory in the nM range”.

Take “KPYTQSDVSMISLQSQKSINSLPSQIKDYVQKTVILAEDNP [ScHeV FC2, reference compound]”: in experiment [2], the “Inhibition of HeV-mediated fusion (in words)” value was “no inhibitory effect”. For the same molecule, the “Inhibition of NiV-mediated fusion (in words)” value in experiment [3] was “no inhibitory effect”.

For the origin of these results see US8114410B2, “Composition and methods for the inhibition of membrane fusion by paramyxoviruses” (priority 2001, dated 2012).
